Assay results: patent US11590110B2, “Compositions and methods for reactivating latent immunodeficiency virus using a GSK-3 inhibitor” (priority 2017, dated 2023)
Entries after “also recorded” stand apart in the source; their conditions may differ. Read-outs that look alike come from different tables or passages of the source.

Key:
[1] = tested on: tonsil CD4+ T cells; assay: Example 6: cell viability in tonsil CD4+ T cell cultures, Cell-Titer Blue; conditions: SB216763 10-1,000 nM, PMA 200 nM, panobinostat 50 nM; 48 hours
[2] = tested on: latent HIV-1 in blood CD4+ T cells from infected individuals on suppressive ART; assay type: cell-based
[3] = tested on: latent HIV-GFP reporter virus in resting CD4+ T cells from human tonsil; assay: Example 6: lymphoid tissue model of HIV latency, HIV-GFP reporter, flow cytometry; assay type: cell-based; conditions: 48 hours; for latency reversal by first-generation LRAs: bryostatin-1 10 nM, JQ1 100 nM, panobinostat 50 nM
[4] = tested on: NF-κB (p65); assay: Example 5: NF-κB p65 nuclear translocation, western blot of nuclear extracts; assay type: cell-based, human; conditions: 250 nM inhibitor with 1 μM tideglusib
[5] = tested on: CD4+ T cells; assay: Example 5: GLUT1 surface expression, flow cytometry; assay type: cell-based, human; conditions: 2 or 24 hours; 1 μM tideglusib; CD4+ T cells of three HIV-negative donors
Method: (§1) Freshly isolated PBMCs or CD4^+ T cells were stained for viability, using the fixable viability dye Zombie violet (1:50, Biolegend) according to the manufacturer's recommendation. Surface staining was performed with the following antibodies at 1:100 dilutions: CD3-PE-Cy7, CD4-APC-Cy7, CD69-FITC, CD25-PE (all 1:100, Biolegend), and Glut-1-Ax647 (BD Bioscience, 566580) in staining buffer for 20 min on ice and cells were fixed in 1% PFA-containing PBS. All flow analysis was performed on the LSRII (BD Biosciences) using FlowJo software (v.10.4.2). Color compensations were performed using single-stained samples for each of the fluorochromes used. Data were analyzed using FlowJo software (TreeStar, San Carlos, Calif.).
Changes to the metabolism of resting CD4^+ T-cells by tideglusib were studied. […] […].

[6] = tested on: CD4+ T cells; assay: Example 5: CD4+ T cell viability, Cell Titer Blue assay; assay type: cell-based, human; conditions: 48 hours; for CD4+ T-cell viability: SB-216763 and tideglusib 10/100/1000 nM, bryostatin-1 10 nM
Method: 25 μl from each well/treatment were incubated with Cell Titer Blue reagent (Promega) for 3 to 4 hours at 37° C. The assay is based on the ability of living cells to convert a redox dye (resazurin) into a fluorescent end product (resorufin). Colorimetric analysis of treated cells was done with a Perkin Elmer EnSpire 2300 Multimode plate reader set to detect fluorescence (Ex:579 nm/Em:584 nm).

[7] = tested on: CD4+ T cells; assay: Example 5: surface expression of activation markers CD69 and CD25, flow cytometry; assay type: cell-based, human; conditions: 48 hours
Method: as §1

[8] = tested on: CD4+ T cells; assay: Example 5: cytokines release assay (V-PLEX pro-inflammatory panel); assay type: cell-based, human; conditions: 48 hours; culture supernatant of CD4+ T cells
Method: Supernatant was collected from the treated cell cultures described above and stored at −80° C. for later analysis. Supernatant cytokine levels were determined using a V-PLEX Proinflammatory Panel 1 (human) Kit (#K15049D-1) and a V-PLEX IL-17A Gen. B (human) (#K151WMD) from Meso Scale Discovery, following the manufacturer's protocol. The assay was done on undiluted supernatant samples in order to increase the sensitivity of the assay.

[9] = tested on: CD4+ T cells; assay: Example 5: lactate production analysis; assay type: cell-based, human
Method: Subsequently, media of the treated samples were tested for production of L-lactated using a Glycolysis Cell-Based Assay Kit (Cayman Chemical). This test measures the quantity of formazan, an artificial chromogenic dye that results from the reduction of tetrazolium salts in the presence of NADH in the culture media. Colored formazan absorbs between 490 and 520 nm and can be detected by a plate reader. Since lactate dehydrogenase catalyzes the reaction between NAD+ and lactate, yielding pyruvate and NADH, which directly reduces the tetrazolium salt, the quantity of formazan produced is proportional to the quantity of L-lactate in the culture medium, and is thus an indirect measurement of glycolysis. In order to determine specific L-Lactate concentration, a standard curve was obtained analyzing absorbance of known concentration of L-lactate as indicated in the manufacturer's protocol.

[10] = tested on: patient CD4+ T cells; conditions: human, 48 h
[11] = tested on: GSK-3; conditions: cited from earlier work
[12] = tested on: latent HIV in CD4+ T cells of HIV-infected patients on suppressive anti-retroviral therapy; assay: Example 7: reversal of HIV latency in patient CD4+ T cells, extracellular viral RNA by digital droplet PCR
[13] = tested on: patient-derived CD4+ T cells; conditions: as shown in PCT/US2016/64614; cited from earlier work
[14] = tested on: CD8+ T cells; assay: Example 5: CD8 T-cell viability and cytotoxic effector functions; assay type: cell-based, human; conditions: 48 hours; 50 nM
Method: After drug treatment, human PBMCs were cultured in complete RPMI in the presence of CD107a-BV650 (1:50, 328637, BioLegend) or CD107a-FITC antibodies (1:50, 555800, BD Bioscience) and PMA/ionomycin (50 ng/ml and 1 uM) dor 3.5 hours, adding Brefeldin A and Monensin (eBioscience) for the last hour. Cells were subsequently stained for viability using the viability dyes eFluor 506, (eBioscience) according to the provided protocol. After surface marker staining with the following antibodies (all at 1:100 dilution): CD3-APC-H7 (560176; BD Biosciences), CD8-V450 (560347; BD Biosciences), CD45RA-APC (17-0458; eBioscience), and CCR7-PE-Cy7 (557648; BD Biosciences), cells were permeabilized and fixed using the Foxp3/Transcription Factor Fixation/Permeabilization Concentrate and Diluent kit (eBioscience). Intracellular staining was performed with IFN-γ-PerCP-Cy5.5 antibody (1:100, 560704, BD Bioscience) in FOXP3 perm/wash buffer for 1 h at 4° C. After washing and fixation of the cells in 1% paraformaldehyde/PBS, cells were analyzed by flow cytometry. Final data stems from having gated on CD8hi- and CD8lo-expressing T cells.

[15] = tested on: NK cells; assay: Example 5: NK cell viability and cytotoxic effector functions; assay type: cell-based, human; conditions: 48 hours; 50 nM
Method: Density centrifugation using a Ficoll-Hypaqua gradient was performed to purify PBMCs from continuous-flow centrifugation leukapheresis product. Subsequently, cells were plated in 96-well U-bottom plated in complete RPMI, which was supplemented with 10 ng/ml recombinant IL-15 (R&D systems), treated with LRAs or vehicle controls (DMSO) and incubated at 37° C., 5% CO2 for 48 h. To assay NK cell functionality, cells were analyzed by flow cytometry. Briefly, 1×10^6 cells/200 ul were stained with FITC anti-CD107 antibodies (1:50, BD Biosciences), mixed with 1×10^5 K562 cells and incubated at 37° C., 5% CO2 for 1 h. Then, in order to enhance intracellular cytokine staining, protein transport was blocked with Brefeldin A (Sigma-Aldrich) and golgi stop (BD Biosciences) according to the manufacturer instructions and the cells were incubated at 37° C., 5% CO2 for another 5 h. Afterwards, cells were spun down (5 min, 330×g, RT), the supernatant was removed and the cells were stained using Zombie violet (1:50, Biolegend) according to the manufacturer protocol. Subsequently, cells were stained for surface proteins staining with the following antibodies: APC/Cy7 anti CD3 (1:100, Biolegend), APC anti CD14 (1:100, Biolegend), APC anti CD19 (1:100, Biolegend), PE/Cy7 anti CD56 (1:100, BD Biosciences), Alexa Fluor 700 anti CD16 (1:100, Biolegend), PE anti CD7 (1:50, Thermo Fisher Scientific) for 15 min at room temperature. Next, cells were permeabilized and fixed using the Foxp3/Transcription Factor Fixation/Permeabilization Concentrate and Diluent kit (eBioscience) and stained intracellularly with PerCP/Cy5 anti IFN-γ (1:50, BD Bioscience) in FOXP3 perm/wash buffer for 1 h at 4° C. Finally, cells were washed and fixed in 1% paraformaldehyde/PBS, and subjected to flow cytometry analysis on a LSRII (BD Biosciences). Data were obtained using FlowJo software (Treestar). Samples were gated for singlets, live, CD3 negative, CD14/CD19 negative and CD7 positive cells as previously described (York, Milush). CD16high/CD56dim, CD16dim/CD56high cells were considered for analysis of IFN-γ and CD107a positivity. All gates were defined, based on fluorescence minus one (FMO) samples.

[16] = tested on: patient-derived CD4+ T cells; conditions: as shown in PCT/US2016/64614; cited from earlier work; remark: listed apart in the source
[17] = 10 nM, 48 hours, relative to untreated control

CCCCCCCCCCCCCC(=O)O[C@@H]1[C@@H](C)[C@@]2(O)[C@@H](C=C(CO)C[C@]3(O)C(=O)C(C)=C[C@@H]23)[C@@H]2C(C)(C)[C@]12OC(C)=O [PMA, phorbol 12-myristic13-acetate]
cell viability relative to untreated cells [1]: clear toxicity; also recorded: toxicity was observed

CCOC(=O)C1=C(N)Oc2ccc(Cl)cc2C1C(C#N)C(=O)OCC (stereo not drawn) [SC79, 2-amino-6-chloro-α-cyano-3-(ethoxycarbonyl)-4H-1-benzopyran-4-acetic acid ethyl ester]
release of virions in the culture supernatant ([2]; 48 hours, CD4+ T cells from five HIV-positive participants, SC79 10/100/1000 nM): increased release of virions

Cc1sc2c(c1C)C(c1ccc(Cl)cc1)=N[C@@H](CC(=O)OC(C)(C)C)c1nnc(C)n1-2 [JQ-1]
latency reversal by first-generation LRAs [3]: only minimal latency reversal

CC(C)n1nc(-c2cc3cc(O)ccc3[nH]2)c2c(N)ncnc21 [PP242]
effect of co-treatment on tideglusib-mediated p65 nuclear translocation [4]: less reduction in nuclear translocation
GLUT1 surface expression over the untreated control [5]: did not significantly alter expression of GLUT1

Cn1cc(C2=C(c3ccc(Cl)cc3Cl)C(=O)NC2=O)c2ccccc21 [SB-216763, 3-(2,4-Dichlorophenyl)-4-(1-methyl-1H-indol-3-yl)-1H-pyrrole-2,5-dione]
CD4+ T-cell viability [6]: does not reduce viability
surface expression of the activation markers CD69 or CD25 [7]: no increase
production and release of pro-inflammatory cytokines [8]: does not induce T cell activation or cytokine production
L-lactate in the culture media ([9]; 24 hours of treatment): did not result in an increase of L-lactate
induction of the GFP reporter over unstimulated ([3]; doses between 100-1000 nM): 90 fold
toxicity based on cell-titer blue testing [10]: Neither tideglusib nor SB216763 induced toxicity
latency reversing activity, in words ([12]; at equivalent doses): comparable activity
subjects that did not respond ([12]; highest dose): 3 of 14

CCC/C=C/C=C/C(=O)O[C@H]1/C(=C/C(=O)OC)C[C@H]2C[C@H]([C@@H](C)O)OC(=O)C[C@H](O)C[C@@H]3C[C@H](OC(C)=O)C(C)(C)[C@](O)(C[C@@H]4C/C(=C/C(=O)OC)C[C@H](/C=C/C(C)(C)[C@]1(O)O2)O4)O3 [bryostatin-1]
virus-associated HIV-1 mRNA, mean fold-change [2, 17]: 574.4 fold
virus-associated HIV-1 mRNA, median value [2, 17]: 5.086 fold
CD4+ T-cell viability [6]: minimal decrease
CD69 surface expression ([7]; 10 nM): markedly increased
production and release of pro-inflammatory cytokines [8]: release of IFN-γ, IL-6, IL-13
latency reversal by first-generation LRAs [3]: only minimal latency reversal
activation marker expression with known latency-reversing agent [13]: increase in activation marker expression

O=CC[C@@H](O)[C@H](O)[C@H](O)CO [2-DG, 2-deoxy-D-glucose]
L-lactate production in treated and untreated samples ([9]; 50 mM, 24 hours): dramatically reduced L-lactate production

Cc1[nH]c2ccccc2c1CCNCc1ccc(/C=C/C(=O)NO)cc1 [panobinostat]
cell death of CD4+ T cells ([6]; 50 nM): ~50%
reduction of total CD8+ T cells [14]: approximately 40%
reduction of total NK cells [15]: approximately 60%
toxicity of known latency-reversing agent [16]: highly toxic
